This assay deals with monoclonal antibody products. Conditions: binding to monoclonal antibody products; read-out: dissociation constant (KD).

pKd: −log10 of the molar value.

What is called pKd is the negative decadic logarithm of the Kd, by convention in mol/L.

Take `Nc1cccc(Nc2nc(NCCO)nc(NCC(O)CNc3nc(NCCO)nc(Nc4cccc(N)c4)n3)n2)c1` [Compound 1, 1,3-bis({4-[(3-aminophenyl)amino]-6-[(2-hydroxyethyl)amino]-1,3,5-triazin-2-yl}amnio)propan-2-ol]: the negative logarithm of the Kd (pKd) was over 6.00.

Source of the values: patent US20190167576A1, “USE OF HIGH AFFINITY MONOCLONAL ANTIBODY PRODUCT BINDERS TO INCREASE THE DURATION OF ACTION OF THERAPEUTIC MONOCLONAL ANTIBODY PRODUCTS IN A BIOLOGIC TISSUE” (priority 2016, published 2019).
